According to article PMC5218480 (PLoS ONE, 2017):

System: MV-4-11 cells
Assay: Gene expression microarray analysis (Affymetrix PrimeView) and GSEA
Assay type: cell-based, human
Parameters: RFU PODN (11730768_x_at) / Fold change /veh PODN (11730768_x_at) / RFU LINC00158 (11744669_a_at) / Fold change /veh LINC00158 (11744669_a_at) / RFU DUSP10 (11751237_a_at) / Fold change /veh DUSP10 (11751237_a_at) / RFU ID3 (11757404_x_at) / Fold change /veh ID3 (11757404_x_at) / RFU PLEKHG5 (11737974_s_at) / Fold change /veh PLEKHG5 (11737974_s_at) / RFU LRRC4B (11730491_at) / Fold change /veh LRRC4B (11730491_at) / RFU GIMAP4 (11747438_a_at) / Fold change /veh GIMAP4 (11747438_a_at) / RFU KRT8 (11758183_x_at) / Fold change /veh KRT8 (11758183_x_at) / RFU CNN1 (11734310_a_at) / Fold change /veh CNN1 (11734310_a_at) / RFU VPS37D (11726825_at) / Fold change /veh VPS37D (11726825_at) / RFU C10orf10 (11716522_x_at) / Fold change /veh C10orf10 (11716522_x_at) / RFU KIR2DL2 /// KIR2DL4 /// KIR2DL5A /// KIR2DL5B /// KIR2DS1 /// KIR2DS2 /// KIR2DS3 /// KIR2DS4 /// KIR3DL3 /// KIR3DL3 /// KIR3DS1 (11738374_at) / Fold change /veh KIR2DL2 /// KIR2DL4 /// KIR2DL5A /// KIR2DL5B /// KIR2DS1 /// KIR2DS2 /// KIR2DS3 /// KIR2DS4 /// KIR3DL3 /// KIR3DL3 /// KIR3DS1 (11738374_at) / RFU C1QL1 (11718748_at) / Fold change /veh C1QL1 (11718748_at) / RFU TMPRSS4 (11747572_a_at) / Fold change /veh TMPRSS4 (11747572_a_at) / RFU HAMP (11756126_x_at) / Fold change /veh HAMP (11756126_x_at) / RFU RNFT2 (11725882_a_at) / Fold change /veh RNFT2 (11725882_a_at) / RFU NR4A2 (11747474_a_at) / Fold change /veh NR4A2 (11747474_a_at) / RFU ABCC12 (11746883_a_at) / Fold change /veh ABCC12 (11746883_a_at) / RFU TMEM136 (11760407_x_at) / Fold change /veh TMEM136 (11760407_x_at) / RFU CLDN22 /// WWC2 (11732394_at) / Fold change /veh CLDN22 /// WWC2 (11732394_at) / RFU HLA-DPB1 (11760878_x_at) / Fold change /veh HLA-DPB1 (11760878_x_at) / RFU SPINT1 (11716480_a_at) / Fold change /veh SPINT1 (11716480_a_at) / RFU GAP43 (11754022_s_at) / Fold change /veh GAP43 (11754022_s_at) / RFU A4GNT (11735810_at) / Fold change /veh A4GNT (11735810_at) / RFU PRB3 (11715151_x_at) / Fold change /veh PRB3 (11715151_x_at) / RFU TUBB4B (11761932_at) / Fold change /veh TUBB4B (11761932_at) / RFU CAPN14 (11732068_a_at) / Fold change /veh CAPN14 (11732068_a_at) / RFU TMCC2 (11721928_a_at) / Fold change /veh TMCC2 (11721928_a_at) / RFU IRGQ (11745062_a_at) / Fold change /veh IRGQ (11745062_a_at) / RFU FAM174B (11720279_a_at) / Fold change /veh FAM174B (11720279_a_at) / RFU TMPRSS4 (11748680_a_at) / Fold change /veh TMPRSS4 (11748680_a_at) / RFU FAM212B (11763350_a_at) / Fold change /veh FAM212B (11763350_a_at) / RFU PLEKHG5 (11743358_a_at) / Fold change /veh PLEKHG5 (11743358_a_at) / RFU ZSCAN30 (11745921_a_at) / Fold change /veh ZSCAN30 (11745921_a_at) / RFU CMKLR1 (11741424_a_at) / Fold change /veh CMKLR1 (11741424_a_at) / RFU LOC101060620 /// MAPK8IP1 (11723275_at) / Fold change /veh LOC101060620 /// MAPK8IP1 (11723275_at) / RFU SPTSSB (11747773_x_at) / Fold change /veh SPTSSB (11747773_x_at) / RFU PRSS12 (11739890_at) / Fold change /veh PRSS12 (11739890_at) / RFU BIN1 (11741810_x_at) / Fold change /veh BIN1 (11741810_x_at) / RFU WNT11 (11732464_a_at) / Fold change /veh WNT11 (11732464_a_at) / RFU C10orf10 (11716521_a_at) / Fold change /veh C10orf10 (11716521_a_at) / RFU C5orf56 (11738089_at) / Fold change /veh C5orf56 (11738089_at) / RFU CYB561 (11721691_x_at) / Fold change /veh CYB561 (11721691_x_at) / RFU ANKRD19P (11752326_a_at) / Fold change /veh ANKRD19P (11752326_a_at) / RFU OR2T12 /// OR2T33 /// OR2T8 (11738714_s_at) / Fold change /veh OR2T12 /// OR2T33 /// OR2T8 (11738714_s_at) / RFU VCAN (11748164_a_at) / Fold change /veh VCAN (11748164_a_at) / RFU JSRP1 (11732532_at) / Fold change /veh JSRP1 (11732532_at) / RFU KRTAP10-11 (11738290_x_at) / Fold change /veh KRTAP10-11 (11738290_x_at) / RFU MYO3A (11730013_a_at) / Fold change /veh MYO3A (11730013_a_at) / RFU EBF3 (11725865_a_at) / Fold change /veh EBF3 (11725865_a_at) / RFU CAMK2N1 (11719241_x_at) / Fold change /veh CAMK2N1 (11719241_x_at) / RFU C5orf56 (11738088_a_at) / Fold change /veh C5orf56 (11738088_a_at) / RFU OLFML3 (11715873_a_at) / Fold change /veh OLFML3 (11715873_a_at) / RFU LOC100653217 /// NTM (11731650_a_at) / Fold change /veh LOC100653217 /// NTM (11731650_a_at) / RFU MAPK11 (11762145_a_at) / Fold change /veh MAPK11 (11762145_a_at) / RFU FIZ1 (11724087_x_at) / Fold change /veh FIZ1 (11724087_x_at) / RFU OASL (11726364_x_at) / Fold change /veh OASL (11726364_x_at) / RFU SOX15 (11748057_x_at) / Fold change /veh SOX15 (11748057_x_at) / RFU CD79A (11719716_a_at) / Fold change /veh CD79A (11719716_a_at) / RFU HIST1H1D (11736915_at) / Fold change /veh HIST1H1D (11736915_at) / RFU CASKIN2 (11723855_a_at) / Fold change /veh CASKIN2 (11723855_a_at) / RFU LOC730098 (11760151_x_at) / Fold change /veh LOC730098 (11760151_x_at) / RFU OR4N2 (11742367_at) / Fold change /veh OR4N2 (11742367_at) / RFU PRRT2 (11749266_a_at) / Fold change /veh PRRT2 (11749266_a_at) / RFU SNX32 (11753110_a_at) / Fold change /veh SNX32 (11753110_a_at) / RFU CDHR5 (11726645_a_at) / Fold change /veh CDHR5 (11726645_a_at) / RFU RCAN1 (11760418_a_at) / Fold change /veh RCAN1 (11760418_a_at) / RFU FAM167A (11723789_a_at) / Fold change /veh FAM167A (11723789_a_at) / RFU FAM26E (11764081_at) / Fold change /veh FAM26E (11764081_at) / RFU ISYNA1 (11749810_s_at) / Fold change /veh ISYNA1 (11749810_s_at) / RFU ACY1 (11761880_at) / Fold change /veh ACY1 (11761880_at) / RFU 11764098_at / Fold change /veh 11764098_at / RFU SAMD14 (11745864_x_at) / Fold change /veh SAMD14 (11745864_x_at) / RFU NPB (11741838_a_at) / Fold change /veh NPB (11741838_a_at) / RFU TMPRSS6 (11731388_a_at) / Fold change /veh TMPRSS6 (11731388_a_at) / RFU KRTAP10-2 (11738614_at) / Fold change /veh KRTAP10-2 (11738614_at) / RFU ARHGAP8 /// PRR5-ARHGAP8 (11727945_x_at) / Fold change /veh ARHGAP8 /// PRR5-ARHGAP8 (11727945_x_at) / RFU KRTAP5-7 /// NADSYN1 (11734609_at) / Fold change /veh KRTAP5-7 /// NADSYN1 (11734609_at) / RFU RASL12 (11751679_a_at) / Fold change /veh RASL12 (11751679_a_at) / RFU CDKN2B (11736163_a_at) / Fold change /veh CDKN2B (11736163_a_at) / RFU PRF1 (11729649_at) / Fold change /veh PRF1 (11729649_at) / RFU, ZNF638 /// ZNF638-IT1 / Fold change vs veh, ZNF638 /// ZNF638-IT1 / RFU, PANK3 / Fold change vs veh, PANK3 / RFU, SH3YL1 / Fold change vs veh, SH3YL1 / RFU, ZEB2 / Fold change vs veh, ZEB2 / RFU, NRIP1 / Fold change vs veh, NRIP1 / RFU, PTTG1IP / Fold change vs veh, PTTG1IP / RFU, CAPN2 / Fold change vs veh, CAPN2 / RFU, MED14 / Fold change vs veh, MED14 / RFU, SNORA58 / Fold change vs veh, SNORA58 / RFU, C1orf63 / Fold change vs veh, C1orf63 / RFU, LRRFIP1 / Fold change vs veh, LRRFIP1 / RFU, NDUFAF7 / Fold change vs veh, NDUFAF7 / RFU, SLC12A2 / Fold change vs veh, SLC12A2 / RFU, IBTK / Fold change vs veh, IBTK / RFU, ESF1 / Fold change vs veh, ESF1 / Fold change vs veh, TMEM50B / RFU, TAOK1 / Fold change vs veh, TAOK1 / RFU, ACBD3 / Fold change vs veh, ACBD3 / RFU, TMA16 / Fold change vs veh, TMA16 / RFU, RWDD3 / Fold change vs veh, RWDD3 / RFU, BCAT1 / Fold change vs veh, BCAT1 / RFU, EDEM3 / Fold change vs veh, EDEM3 / RFU, TMEM33 / Fold change vs veh, TMEM33 / RFU, WDR75 / Fold change vs veh, WDR75 / RFU, AHCTF1 / Fold change vs veh, AHCTF1 / RFU, TFRC / Fold change vs veh, TFRC / RFU, ZDHHC17 / Fold change vs veh, ZDHHC17 / RFU, NOM1 / Fold change vs veh, NOM1 / RFU, ARL8B / Fold change vs veh, ARL8B / RFU, ZBTB11 / Fold change vs veh, ZBTB11 / RFU, TAMM41 / Fold change vs veh, TAMM41 / RFU, KIAA1704 /// LOC100996395 / Fold change vs veh, KIAA1704 /// LOC100996395 / RFU, ING1 / Fold change vs veh, ING1 / RFU, TRMT61B / Fold change vs veh, TRMT61B / RFU, FUBP3 / Fold change vs veh, FUBP3 / RFU, TP53 / Fold change vs veh, TP53 / RFU, TNKS2 / Fold change vs veh, TNKS2 / RFU, ZFP14 / Fold change vs veh, ZFP14 / RFU, ACTR2 / Fold change vs veh, ACTR2 / RFU, PPP3R1 / Fold change vs veh, PPP3R1 / RFU, PIK3R1 / Fold change vs veh, PIK3R1 / RFU, HNRNPA1 / Fold change vs veh, HNRNPA1 / RFU, RNF170 / Fold change vs veh, RNF170 / RFU, ZNF28 / Fold change vs veh, ZNF28 / RFU, RNGTT / Fold change vs veh, RNGTT / RFU, OGT / Fold change vs veh, OGT / RFU, BRD1 / Fold change vs veh, BRD1 / RFU, MARS / Fold change vs veh, MARS / RFU, ZNF655 / Fold change vs veh, ZNF655 / RFU, FAHD1 / Fold change vs veh, FAHD1 / RFU, BDP1 / Fold change vs veh, BDP1 / RFU, LRRCC1 / Fold change vs veh, LRRCC1 / RFU, ARID1A / Fold change vs veh, ARID1A / RFU, ZNF146 / Fold change vs veh, ZNF146 / RFU, ZNF330 / Fold change vs veh, ZNF330 / RFU, GPN3 / Fold change vs veh, GPN3 / RFU, C9orf123 / Fold change vs veh, C9orf123 / RFU, N4BP2L2 / Fold change vs veh, N4BP2L2 / RFU, ARFIP1 / Fold change vs veh, ARFIP1 / RFU, FAM179B / Fold change vs veh, FAM179B / RFU, BCL10 / Fold change vs veh, BCL10 / RFU, UHRF1BP1L / Fold change vs veh, UHRF1BP1L / RFU, BET1 / Fold change vs veh, BET1 / RFU, CNOT2 / Fold change vs veh, CNOT2 / RFU, ZNF268 / Fold change vs veh, ZNF268 / Fold change vs veh, ZNF507 / RFU, DGCR2 / Fold change vs veh, DGCR2 / RFU, WDSUB1 / Fold change vs veh, WDSUB1 / Fold change vs veh, HSP90B1 /// MIR3652 / RFU, ADSS / Fold change vs veh, ADSS / RFU, GK / Fold change vs veh, GK / RFU, ZNF148 / Fold change vs veh, ZNF148 / RFU, TAF9 / Fold change vs veh, TAF9 / RFU, SLC1A5 / Fold change vs veh, SLC1A5 / RFU, SLMO2 / Fold change vs veh, SLMO2 / RFU, ABCC4 / Fold change vs veh, ABCC4 / RFU, LOC101060439 /// RAP1B / Fold change vs veh, LOC101060439 /// RAP1B / RFU, RFX7 / Fold change vs veh, RFX7 / RFU, GTPBP10 / Fold change vs veh, GTPBP10 / RFU, CNEP1R1 / Fold change vs veh, CNEP1R1 / RFU, BIVM-ERCC5 /// ERCC5 / Fold change vs veh, BIVM-ERCC5 /// ERCC5 / RFU, ILF3 / Fold change vs veh, ILF3 / RFU 11762660_at / Fold change /veh 11762660_at / RFU VCAN (11757783_s_at) / Fold change /veh VCAN (11757783_s_at) / RFU DDX43 (11728927_at) / Fold change /veh DDX43 (11728927_at) / RFU KRT8 (11758188_x_at) / Fold change /veh KRT8 (11758188_x_at) / RFU NKD1 (11759106_at) / Fold change /veh NKD1 (11759106_at) / RFU SRD5A1 (11742802_a_at) / Fold change /veh SRD5A1 (11742802_a_at) / RFU TPSAB1 /// TPSB2 (11721975_s_at) / Fold change /veh TPSAB1 /// TPSB2 (11721975_s_at) / RFU GSTM3 (11746129_a_at) / Fold change /veh GSTM3 (11746129_a_at) / RFU IL23R (11737362_x_at) / Fold change /veh IL23R (11737362_x_at) / RFU TMEM51 (11727254_a_at) / Fold change /veh TMEM51 (11727254_a_at) / RFU PIWIL2 (11732686_x_at) / Fold change /veh PIWIL2 (11732686_x_at) / RFU ORM1 (11744905_x_at) / Fold change /veh ORM1 (11744905_x_at) / RFU CCDC152 (11743942_at) / Fold change /veh CCDC152 (11743942_at) / RFU ECM1 (11717891_a_at) / Fold change /veh ECM1 (11717891_a_at) / RFU IL23R (11748794_a_at) / Fold change /veh IL23R (11748794_a_at) / RFU TNFAIP8L3 (11732012_x_at) / Fold change /veh TNFAIP8L3 (11732012_x_at) / RFU MBOAT4 (11741988_at) / Fold change /veh MBOAT4 (11741988_at) / RFU 11764193_at / Fold change /veh 11764193_at / RFU TMEM53 (11763286_at) / Fold change /veh TMEM53 (11763286_at) / RFU MAGEB2 (11727129_at) / Fold change /veh MAGEB2 (11727129_at) / RFU TMEM200A (11744735_a_at) / Fold change /veh TMEM200A (11744735_a_at) / RFU CCDC152 (11751479_a_at) / Fold change /veh CCDC152 (11751479_a_at) / RFU FAM211A (11726209_a_at) / Fold change /veh FAM211A (11726209_a_at) / RFU RGS16 (11746705_a_at) / Fold change /veh RGS16 (11746705_a_at) / RFU VCAN (11755009_s_at) / Fold change /veh VCAN (11755009_s_at) / RFU RHOB (11743442_s_at) / Fold change /veh RHOB (11743442_s_at) / RFU RGS16 (11720943_a_at) / Fold change /veh RGS16 (11720943_a_at) / RFU RGS16 (11720944_at) / Fold change /veh RGS16 (11720944_at) / RFU, VPS4B / Fold change vs veh, VPS4B / RFU, CREB1 / Fold change vs veh, CREB1 / RFU, DNAJC13 / Fold change vs veh, DNAJC13 / RFU, GNAQ / Fold change vs veh, GNAQ / RFU, CDK5R1 / Fold change vs veh, CDK5R1 / RFU, ZRANB3 / Fold change vs veh, ZRANB3 / RFU, CUL4A / Fold change vs veh, CUL4A / RFU, CCNY / Fold change vs veh, CCNY / RFU, UFL1 / Fold change vs veh, UFL1 / RFU, COG3 / Fold change vs veh, COG3 / RFU, DIAPH2 / Fold change vs veh, DIAPH2 / RFU, SKA2 / Fold change vs veh, SKA2 / RFU, AFF3 / Fold change vs veh, AFF3 / RFU, LMF1 / Fold change vs veh, LMF1 / RFU, IPO11 / Fold change vs veh, IPO11 / RFU, DFFB / Fold change vs veh, DFFB / RFU, FOXP1 / Fold change vs veh, FOXP1 / RFU, CARD8 / Fold change vs veh, CARD8 / RFU, STRN3 / Fold change vs veh, STRN3 / RFU, ADK / Fold change vs veh, ADK / RFU, RASSF2 / Fold change vs veh, RASSF2 / RFU, WIPF1 / Fold change vs veh, WIPF1 / RFU, LARP1B / Fold change vs veh, LARP1B / RFU, RASA1 / Fold change vs veh, RASA1 / RFU, RB1 / Fold change vs veh, RB1 / RFU, PPFIA1 / Fold change vs veh, PPFIA1 / RFU, MAT2A / Fold change vs veh, MAT2A / RFU, CCT5 / Fold change vs veh, CCT5 / RFU, WDR92 / Fold change vs veh, WDR92 / RFU, CUX1 / Fold change vs veh, CUX1 / RFU, TTC7A / Fold change vs veh, TTC7A / RFU, TMEM135 / Fold change vs veh, TMEM135 / RFU, DEPTOR / Fold change vs veh, DEPTOR / RFU, CPM / Fold change vs veh, CPM / RFU, DNAJB6 / Fold change vs veh, DNAJB6 / RFU, CACNA2D3 / Fold change vs veh, CACNA2D3 / RFU, DTX4 / Fold change vs veh, DTX4 / RFU, TFCP2 / Fold change vs veh, TFCP2 / RFU, GMCL1 /// GMCL1P1 / Fold change vs veh, GMCL1 /// GMCL1P1 / RFU, AEBP2 / Fold change vs veh, AEBP2 / RFU, SNHG1 /// SNORD22 /// SNORD25 /// SNORD26 /// SNORD27 /// SNORD28 /// SNORD29 /// SNORD31 / Fold change vs veh, SNHG1 /// SNORD22 /// SNORD25 /// SNORD26 /// SNORD27 /// SNORD28 /// SNORD29 /// SNORD31 / Fold change (Aza/veh), C12orf56 (ProbeSet 11735607_a_at) / Fold change (ACY-1035/veh), C12orf56 (ProbeSet 11735607_a_at) / Fold change (Aza/veh), FGFR1OP (ProbeSet 11751329_s_at) / Fold change (ACY-1035/veh), FGFR1OP (ProbeSet 11751329_s_at) / Fold change (Aza/veh), VPS36 (ProbeSet 11739960_a_at) / Fold change (ACY-1035/veh), VPS36 (ProbeSet 11739960_a_at) / RFU SYPL1 (11715823_x_at) / Fold change /veh SYPL1 (11715823_x_at) / RFU IGFBP7 (11715501_s_at) / Fold change /veh IGFBP7 (11715501_s_at) / RFU REEP3 (11722064_at) / Fold change /veh REEP3 (11722064_at) / RFU IGLL1 (11728026_x_at) / Fold change /veh IGLL1 (11728026_x_at): dose or concentration left out as unconfirmed
Conditions: ProbeSet 11743929_at; LIST B

Nc1ccc(-c2cccs2)cc1NC(=O)c1ccc2c(c1)cc(C1CC1)n2CCN1CCOCC1 [ACY-1035]
Fold change vs veh, UHRF1BP1L: 0.90
